# Data from ChEMBL document CHEMBL1201862, “PubChem BioAssay data set” (2004).
# Calls of active or inactive are those of the source.
# What was measured:
# [1] = molecular target: T1, Luciferin 4-monooxygenase (Photinus pyralis, UniProt P08659); test: Counter Screen for Luciferase-based Assay Positives. [Related pubchem assays: 620, 618, 411 ]
# HT-1080 = test: HT1080 cell viability loss – fluorescence readout (AID 620); assay type: functional, cell-based; conditions: Homo sapiens
# [2] = molecular target: T2, Calpain-2 catalytic subunit (Sus scrofa, UniProt P43367); test: m-calpain protease blockers, concentration series – biochemical, fluorogenic peptide substrate, dose response (AID 1420); assay type: functional
# T2 sequence (P43367 whole entry): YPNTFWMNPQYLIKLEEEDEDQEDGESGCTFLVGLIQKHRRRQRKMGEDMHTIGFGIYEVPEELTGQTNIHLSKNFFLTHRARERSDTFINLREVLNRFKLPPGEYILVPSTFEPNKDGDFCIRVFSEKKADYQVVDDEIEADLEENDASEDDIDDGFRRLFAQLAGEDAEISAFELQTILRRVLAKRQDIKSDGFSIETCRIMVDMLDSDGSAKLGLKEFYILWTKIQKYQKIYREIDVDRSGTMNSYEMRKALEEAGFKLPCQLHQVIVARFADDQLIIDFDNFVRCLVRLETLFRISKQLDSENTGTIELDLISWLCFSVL
# [3] = A549 cell cytotoxicity, dose response, cytotoxicity control, plate reader, cherry-pick, antagonist series (AID 743412); assay type: functional, cell-based
# [4] = toxicity toward HepG2 liver cells – cell-based, plate reader, cherry-pick, antagonist series, cytotoxicity control, dose response (AID 743416); assay type: functional
# [5] = blockers of bursicon-stimulated LGR2 cAMP reporter – cell-based, HEK293, CRE-luciferase reporter, cherry pick, set 2, dose response (AID 743343); assay type: functional;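 note: transfected cells were stimulated with diluted bursicon conditioned medium after compound addition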
# [6] = blockade of melanocortin 4 receptor signaling – cell-based, plate reader, cherry pick, counter-screen for LGR2 antagonist project, dose response (AID 743444); assay type: functional;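 note: transfected HEK 293 cells stimulated with alpha-MSH peptide; potency of inhibitors of the alpha-MSH evoked signal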
# [7] = viability loss in HEK293 cells – cell-based, plate reader, cherry-picked samples, cytotoxicity control, dose response (AID 743446); assay type: functional
# [8] = blockers of HIV-1 envelope-mediated cell-cell fusion – cherry-pick, dose response (AID 652057); assay type: functional, cell-based
# [9] = viability loss in CEM21 cells – cell-based, CellTiter-Glo luminescence, cherry-picked, cytotoxicity control for viral fusion inhibitor project, dose response (AID 652042); assay type: functional;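 note: potency for signal decrease meaning cytotoxicity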
# [10] = HIV-1 AD8 envelope cell-cell fusion blockers – cherry-pick, dose response (AID 652062); assay type: functional, cell-based;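 note: luciferase signal from cell-cell fusion driven by HIV-1 clade B AD8 Env; potency is for inhibitors of fusion seen as a drop in luminescence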
# cells = assay type: functional, cell-based
# [11] = molecular target: T3, DNA repair protein RAD52 homolog (Homo sapiens, UniProt P43351); assay type: functional, biochemical
# T3 sequence (P43351 whole entry): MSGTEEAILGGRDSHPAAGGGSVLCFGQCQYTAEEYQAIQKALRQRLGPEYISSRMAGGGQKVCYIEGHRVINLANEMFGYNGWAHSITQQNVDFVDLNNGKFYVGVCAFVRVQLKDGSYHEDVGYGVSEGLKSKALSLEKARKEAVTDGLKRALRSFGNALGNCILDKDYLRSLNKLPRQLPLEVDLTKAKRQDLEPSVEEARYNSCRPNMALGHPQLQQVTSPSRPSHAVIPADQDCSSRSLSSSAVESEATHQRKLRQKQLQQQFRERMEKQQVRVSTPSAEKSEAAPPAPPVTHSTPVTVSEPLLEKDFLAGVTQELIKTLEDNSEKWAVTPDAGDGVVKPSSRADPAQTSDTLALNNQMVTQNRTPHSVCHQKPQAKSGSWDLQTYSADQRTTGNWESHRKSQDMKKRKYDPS
# [12] = molecular target: T4, Nuclear receptor subfamily 0 group B member 1 (Homo sapiens, UniProt P51843); assay type: functional, cell-based;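 note: HEK293T cells transfected with SF-1 and DAX-1 plus StAR promoter luciferase reporter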
# T4 sequence (P51843 whole entry): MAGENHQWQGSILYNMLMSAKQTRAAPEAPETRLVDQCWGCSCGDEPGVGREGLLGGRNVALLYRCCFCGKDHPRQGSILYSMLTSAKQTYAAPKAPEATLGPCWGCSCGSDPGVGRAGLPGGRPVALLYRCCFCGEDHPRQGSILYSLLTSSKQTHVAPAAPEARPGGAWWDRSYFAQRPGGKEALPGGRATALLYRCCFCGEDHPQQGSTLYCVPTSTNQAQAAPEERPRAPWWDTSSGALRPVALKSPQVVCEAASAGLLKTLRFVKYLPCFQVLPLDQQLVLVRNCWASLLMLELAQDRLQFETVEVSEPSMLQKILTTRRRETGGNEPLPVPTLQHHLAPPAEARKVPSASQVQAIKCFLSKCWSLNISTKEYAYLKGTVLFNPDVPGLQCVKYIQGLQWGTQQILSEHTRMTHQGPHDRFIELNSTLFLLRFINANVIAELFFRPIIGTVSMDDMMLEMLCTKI
# Caspase-3 = molecular target: T5, Caspase-3 (Homo sapiens, UniProt P42574); assay type: functional;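 note: Dose-response selectivity test against caspase-3 for candidate inhibitors of sentrin-specific proteases (SENPs)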
# T5 sequence (P42574 whole entry): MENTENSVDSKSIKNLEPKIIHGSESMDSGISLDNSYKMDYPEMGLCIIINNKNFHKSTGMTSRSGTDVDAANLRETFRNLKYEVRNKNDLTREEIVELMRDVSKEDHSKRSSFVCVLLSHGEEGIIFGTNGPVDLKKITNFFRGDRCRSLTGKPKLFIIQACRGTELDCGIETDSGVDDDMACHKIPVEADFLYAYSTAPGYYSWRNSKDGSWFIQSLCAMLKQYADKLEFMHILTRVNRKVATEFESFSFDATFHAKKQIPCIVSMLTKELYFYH
# [13] = molecular target: T6, Sentrin-specific protease 7 (Homo sapiens, UniProt Q9BQF6); assay type: functional;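 note: Luminescence-based dose-response confirmation of ultra-high-throughput screening hits, measuring inhibition of SENP7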
# T6 sequence (Q9BQF6 whole entry): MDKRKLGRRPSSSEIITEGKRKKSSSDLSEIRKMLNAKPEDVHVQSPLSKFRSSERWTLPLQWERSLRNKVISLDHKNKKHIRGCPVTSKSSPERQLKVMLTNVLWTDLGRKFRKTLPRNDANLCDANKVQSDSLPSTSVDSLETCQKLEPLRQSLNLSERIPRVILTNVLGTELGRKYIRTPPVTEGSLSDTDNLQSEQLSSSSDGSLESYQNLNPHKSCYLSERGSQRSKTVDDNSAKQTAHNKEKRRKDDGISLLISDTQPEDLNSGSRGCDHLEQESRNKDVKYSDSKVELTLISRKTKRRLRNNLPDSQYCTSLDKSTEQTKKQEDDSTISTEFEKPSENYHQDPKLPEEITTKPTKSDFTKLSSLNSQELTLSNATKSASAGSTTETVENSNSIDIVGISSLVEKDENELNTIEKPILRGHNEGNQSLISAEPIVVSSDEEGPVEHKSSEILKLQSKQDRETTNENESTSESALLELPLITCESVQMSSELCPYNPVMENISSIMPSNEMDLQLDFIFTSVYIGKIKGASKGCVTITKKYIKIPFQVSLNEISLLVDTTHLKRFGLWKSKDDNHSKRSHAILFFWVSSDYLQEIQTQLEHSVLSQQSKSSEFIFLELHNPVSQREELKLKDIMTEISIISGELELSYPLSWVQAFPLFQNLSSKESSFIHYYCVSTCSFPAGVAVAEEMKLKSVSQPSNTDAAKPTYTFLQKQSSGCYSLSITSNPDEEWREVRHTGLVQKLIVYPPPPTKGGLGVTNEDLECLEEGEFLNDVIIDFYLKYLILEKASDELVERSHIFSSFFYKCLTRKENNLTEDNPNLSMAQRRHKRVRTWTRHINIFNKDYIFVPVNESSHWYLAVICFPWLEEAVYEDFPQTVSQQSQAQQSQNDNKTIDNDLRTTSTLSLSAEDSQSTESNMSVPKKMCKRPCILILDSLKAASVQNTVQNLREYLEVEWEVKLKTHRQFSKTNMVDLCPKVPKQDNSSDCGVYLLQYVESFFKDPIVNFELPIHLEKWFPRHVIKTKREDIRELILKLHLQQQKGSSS
# [14] = molecular target: T7, Sentrin-specific protease 6 (Homo sapiens, UniProt Q9GZR1); assay type: functional;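 note: Luminescence-based dose-response confirmatory assay of SENP6 inhibition, following up an ultra-high-throughput screen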
# T7 sequence (Q9GZR1 whole entry): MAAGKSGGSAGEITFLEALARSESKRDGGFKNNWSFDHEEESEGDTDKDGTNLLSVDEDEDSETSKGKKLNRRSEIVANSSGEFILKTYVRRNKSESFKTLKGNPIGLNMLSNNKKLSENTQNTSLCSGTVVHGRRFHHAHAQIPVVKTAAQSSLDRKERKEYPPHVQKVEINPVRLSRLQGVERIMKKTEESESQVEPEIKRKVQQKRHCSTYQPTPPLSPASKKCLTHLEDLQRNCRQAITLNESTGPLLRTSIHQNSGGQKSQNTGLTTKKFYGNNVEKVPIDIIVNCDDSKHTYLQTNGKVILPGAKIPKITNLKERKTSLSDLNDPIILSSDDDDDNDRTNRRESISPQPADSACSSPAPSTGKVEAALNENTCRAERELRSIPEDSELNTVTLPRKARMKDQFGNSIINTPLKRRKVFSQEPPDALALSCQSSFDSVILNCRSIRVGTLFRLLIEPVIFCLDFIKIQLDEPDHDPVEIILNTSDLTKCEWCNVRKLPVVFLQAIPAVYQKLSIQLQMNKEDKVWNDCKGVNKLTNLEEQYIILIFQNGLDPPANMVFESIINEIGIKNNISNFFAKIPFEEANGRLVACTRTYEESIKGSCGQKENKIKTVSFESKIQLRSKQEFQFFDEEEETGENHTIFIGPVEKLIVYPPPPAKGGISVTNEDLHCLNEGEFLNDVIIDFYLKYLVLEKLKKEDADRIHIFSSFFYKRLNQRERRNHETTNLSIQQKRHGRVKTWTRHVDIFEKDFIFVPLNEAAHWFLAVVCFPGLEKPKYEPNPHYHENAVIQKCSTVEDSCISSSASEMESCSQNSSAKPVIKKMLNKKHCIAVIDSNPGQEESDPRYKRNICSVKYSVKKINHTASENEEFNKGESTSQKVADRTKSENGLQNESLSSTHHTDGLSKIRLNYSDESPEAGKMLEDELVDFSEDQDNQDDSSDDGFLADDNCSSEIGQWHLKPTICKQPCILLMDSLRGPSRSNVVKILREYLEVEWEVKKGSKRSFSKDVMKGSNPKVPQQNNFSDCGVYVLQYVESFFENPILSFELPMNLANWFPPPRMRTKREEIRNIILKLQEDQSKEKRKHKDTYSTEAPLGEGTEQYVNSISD
# [15] = molecular target: T8, Sentrin-specific protease 8 (Homo sapiens, UniProt Q96LD8); assay type: functional;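 note: luminescence read-out of SENP8 inhibition, dose-response confirmation following an ultra-high-throughput screen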
# T8 sequence (Q96LD8 whole entry): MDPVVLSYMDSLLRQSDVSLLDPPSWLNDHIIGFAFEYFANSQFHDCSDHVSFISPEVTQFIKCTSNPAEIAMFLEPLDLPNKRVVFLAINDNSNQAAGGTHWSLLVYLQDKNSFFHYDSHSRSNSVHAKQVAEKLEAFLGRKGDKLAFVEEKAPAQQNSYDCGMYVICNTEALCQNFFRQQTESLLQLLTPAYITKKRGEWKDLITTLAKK
# [16] = blockers of HIV-1 ZM109 envelope-driven cell-cell fusion – HeLa effector, CEM target cells, luciferase, cherry-pick, dose response (AID 652058); assay type: functional, cell-based;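 note: luciferase signal from HIV-1 Env mediated cell-cell fusion of effector and target cells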
# [17] = off-target signal loss in HeLa-CEM21 co-culture – HeLa F-luc CTL cells, cherry-picked, counter-screen for HIV-1 Env fusion inhibitor project, dose response (AID 652040); assay type: functional, cell-based;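 note: potency for signal decrease marking cytotoxic or nonspecific inhibition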
# [18] = molecular target: T1, Luciferin 4-monooxygenase; test: inhibition of purified Photinus pyralis luciferase – biochemical, luminescence, dose response (AID 1891)
# [19] = Luminescence Cell-Based Dose Confirmation HTS to Identify Inhibitors of Platelet Dense Granule Release. [Related pubchem assays: 1663 (Primary HTS), 1678 (Summary of Project)]; assay type: functional
# T1 sequence (P08659 whole entry): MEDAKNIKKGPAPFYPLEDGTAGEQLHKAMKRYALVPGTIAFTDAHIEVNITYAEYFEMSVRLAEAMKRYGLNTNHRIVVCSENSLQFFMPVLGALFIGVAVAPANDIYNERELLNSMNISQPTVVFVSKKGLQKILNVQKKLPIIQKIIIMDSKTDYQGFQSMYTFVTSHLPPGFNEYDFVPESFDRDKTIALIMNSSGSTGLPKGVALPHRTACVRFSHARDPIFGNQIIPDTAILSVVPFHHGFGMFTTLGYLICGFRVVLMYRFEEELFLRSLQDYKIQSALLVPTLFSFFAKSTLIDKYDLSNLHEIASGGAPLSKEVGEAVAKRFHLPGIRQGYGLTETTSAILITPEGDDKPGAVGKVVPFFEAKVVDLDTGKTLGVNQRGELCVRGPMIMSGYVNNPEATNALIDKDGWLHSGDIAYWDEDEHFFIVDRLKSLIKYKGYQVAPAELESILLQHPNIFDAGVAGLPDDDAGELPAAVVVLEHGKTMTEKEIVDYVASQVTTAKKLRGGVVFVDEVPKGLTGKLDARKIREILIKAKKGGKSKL
smiles,measurement,setting,value
Cc1ccnc(Nc2nc3ccccc3o2)n1,EC50,[1],3.04 µM (active)
same,EC50,HT-1080,> 50 µM (not active)
same,IC50,[2],> 50 µM (not active)
same,AC50,[3],43.5 µM (active)
same,AC50,[4],46.8 µM (active)
same,AC50,[5],5.98 µM (active)
same,AC50,[6],4.77 µM (active)
same,AC50,[7],30.1 µM (active)
Cn1c(=O)c2c(nc(NCCc3ccccc3)n2Cc2ccccc2)n(C)c1=O,AC50,[8],30.8 µM (active)
same,AC50,[9],49.1 µM (active)
same,AC50,[10],12 µM (active)
COc1ccc(/C=C2\Sc3ccc(C(=O)NCCCN4CCCC4)cc3N(C)C2=O)cc1OC,IC50,cells,> 67.5 µM (inactive)
same,AC50,[11],3.69 µM (active)
same,IC50,[12],> 67.5 µM (inactive)
CCOc1cccc(C(=O)Nc2ccc3ccccc3c2)c1,IC50,Caspase-3,3.54 µM (active)
same,IC50,[13],1.46 µM (active)
same,IC50,[14],2.37 µM (active)
same,IC50,[15],4.95 µM (active)
same,AC50,[3],> 52 µM (inactive)
same,AC50,[4],> 52 µM (inactive)
same,AC50,[5],5.95 µM (active)
same,AC50,[6],5.43 µM (active)
same,AC50,[7],> 52 µM (inactive)
C/C=C1\COC(C(=O)NCc2cccc(OC)c2OC)(C(F)(F)F)C=C1C=C1CCCCC1 (configuration not stated),AC50,[8],19.8 µM (active)
same,AC50,[9],22.3 µM (active)
same,AC50,[16],9 µM (active)
same,AC50,[17],50.1 µM (active)
same,AC50,[10],35.6 µM (active)
COc1ccc(-n2nnnc2C(c2cccc(OC)c2OC)N2CCC(n3c(O)nc4ccccc43)CC2)cc1 (configuration not stated),AC50,[3],25.6 µM (active)
same,AC50,[4],> 52 µM (inactive)
same,AC50,[5],17.6 µM (active)
same,AC50,[6],21.5 µM (active)
same,AC50,[7],17.6 µM (active)
C=C[C@@]1(C)CC(=O)[C@]2(O)[C@@]3(C)[C@@H](O)CCC(C)(C)[C@@H]3[C@H](O)[C@H](OC(C)=O)[C@@]2(C)O1 [COLFORSIN],EC50,[18],> 112 µM (not active)
same,EC50,[19],< 88 nM (active)
same,IC50,cells,> 67.5 µM (inactive)
same,IC50,[12],1.73 µM (active)
